According to US12201632B2, “Levoketoconazole for treatment of congenital adrenal hyperplasia and primary aldosteronism” (Strongbridge Dublin Limited, priority 2018, dated 2025):
Where two headings read alike, the source gives them in different places.

Columns and labels:
[1] = test system: EAS associated adrenal hyperplasia no. 1 primary culture; assay: Steroid profile by LC/MS-MS in EAS associated adrenal hyperplasia no. 1; assay type: cell-based, human; conditions: for 11-DOC absolute change vs ACTH stimulation with vehicle / 11-DOC percentage change vs ACTH stimulation with vehicle / 17-OHP absolute change vs ACTH stimulation with vehicle / 17-OHP percentage change vs ACTH stimulation with vehicle / Androstenedione absolute change vs ACTH stimulation with vehicle / Androstenedione percentage change vs ACTH stimulation with vehicle / Corticosterone absolute change vs ACTH stimulation with vehicle / Corticosterone percentage change vs ACTH stimulation with vehicle / Cortisol absolute change vs ACTH stimulation with vehicle / Cortisol percentage change vs ACTH stimulation with vehicle / DHEA absolute change vs ACTH stimulation with vehicle / DHEAS absolute change vs ACTH stimulation with vehicle / Prog absolute change vs ACTH stimulation with vehicle / Prog percentage change vs ACTH stimulation with vehicle / Testosterone absolute change vs ACTH stimulation with vehicle / Testosterone percentage change vs ACTH stimulation with vehicle: EAS associated adrenal hyperplasia no. 1, ACTH; for 11-DOC absolute change vs ACTH stimulation with vehicle / 11-DOC percentage change vs ACTH stimulation with vehicle / 17-OHP absolute change vs ACTH stimulation with vehicle / 17-OHP percentage change vs ACTH stimulation with vehicle / Androstenedione absolute change vs ACTH stimulation with vehicle / Androstenedione percentage change vs ACTH stimulation with vehicle / Corticosterone absolute change vs ACTH stimulation with vehicle / Corticosterone percentage change vs ACTH stimulation with vehicle / Cortisol absolute change vs ACTH stimulation with vehicle / Cortisol percentage change vs ACTH stimulation with vehicle / DHEA absolute change vs ACTH stimulation with vehicle / DHEAS absolute change vs ACTH stimulation with vehicle / Prog absolute change vs ACTH stimulation with vehicle / Prog percentage change vs ACTH stimulation with vehicle / Testosterone absolute change vs ACTH stimulation with vehicle / Testosterone percentage change vs ACTH stimulation with vehicle / 11-DOC absolute change vs control / 11-DOC percentage change vs control / 17-OHP absolute change vs control / 17-OHP percentage change vs control / Androstenedione absolute change vs control / Androstenedione percentage change vs control / Corticosterone absolute change vs control / Corticosterone percentage change vs control / Cortisol absolute change vs control / Cortisol percentage change vs control / DHEA absolute change vs control / DHEAS absolute change vs control / Prog absolute change vs control / Prog percentage change vs control / Testosterone absolute change vs control / Testosterone percentage change vs control: 3 days; for 11-DOC absolute change vs control / 11-DOC percentage change vs control / 17-OHP absolute change vs control / 17-OHP percentage change vs control / Androstenedione absolute change vs control / Androstenedione percentage change vs control / Corticosterone absolute change vs control / Corticosterone percentage change vs control / Cortisol absolute change vs control / Cortisol percentage change vs control / DHEA absolute change vs control / DHEAS absolute change vs control / Prog absolute change vs control / Prog percentage change vs control / Testosterone absolute change vs control / Testosterone percentage change vs control: EAS associated adrenal hyperplasia no. 1, Basal
Procedure: (§1) To obtain primary cultures, adrenal specimens (adrenocortical adenomas, adrenal hyperplasias and adrenocortical carcinomas) were collected after adrenalectomy at the department of Surgery, Erasmus University Medical Center, Rotterdam, the Netherlands, between April 2016 and May 2018. The study was conducted under guidelines that have been approved by the Medical Ethics Committee of the Erasmus Medical Center and informed consent was obtained from all patients. Immediately after surgery, specimens were minced into small pieces of 2-3 mm^3, washed in culture medium and centrifuged for 5 minutes at 600 g. The tissue was stored overnight in culture medium at 4° C., where after the tissue was centrifuged again and the supernatant was removed. Fragments were dissociated using 10-25 ml collagenase type 1 (2 mg/ml: Sigma-Aldrich), followed by incubation at 37° C. for up to two hours. Ficoll (GE healthcare) density gradient separation was used once or twice as required in order to separate contaminating red blood cells from the tumor cells. Cell viability and cell amount were counted by trypan blue exclusion. Dissociated cells were plated at a density of 10^5 cells per well. ACTH-secreting corticotroph pituitary adenoma tissue from patients with Cushing's disease (n=2) was available after transsphenoidal surgery. Single-cell suspensions of the pituitary adenoma tissues were prepared as previously described in detail.
(§2) Primary culture conditions for primary cultures were similar as described in the section ‘cell culture and compounds’, but with small adjustments: ACTH was used at a concentration of 85 pM (250 pg/mL), treatment was started 3-4 days after plating of the cells and cells were incubated for 3 days, and; for pituitary primary cultures, levoketoconazole and racemic ketoconazole were only tested at a concentration of 1 μM. Owing to a limited number of cells obtained from the specimens, not all experiments were carried out in every primary culture.
(§3) Cortisol concentrations were measured in the supernatant using a chemiluminescence immunoassay system (Immulite 2000XPi; Siemens DPC Inc., Los Angeles, Calif., USA). In addition, we carried out multi-steroid analysis by liquid chromatography/mass spectrometry (LC/MS-MS) to accurately quantify androstenedione, corticosterone, cortisol, 11-deoxycortisol, DHEA, DHEAS, progesterone, 17-hydroxyprogesterone, and testosterone. Concentrations that were tested on the LC/MS-MS were closest to 50% inhibition or maximal inhibition of cortisol as determined by the immunoassay. Steroids were quantified with respect to a calibration series, with internal standards. Steroids were quantified on a Xevo TQS LC-MS/MS (Waters Chromatography).
(§4) Statistical analysis was performed using Graphpad Prism 6.0 (Graphpad Software, San Diego, CA). Non-linear regression curve fitting program was used to calculate the half maximal inhibitory concentrations (IC50) on cortisol production. Effects of both compounds on the steroid profile were measured as absolute change compared to control and compared using the Student's t-test. When assessing differences between effects of both compounds, the percentage change was evaluated and compared in order to correct for differences in the vehicle treated control cells. Values of P<0.05 were considered statistically significant and data are presented as mean SEM.

[2] = test system: primary human corticotroph pituitary adenoma cultures; assay: ACTH secretion corrected for cell number in primary corticotroph pituitary adenoma cultures; assay type: cell-based; conditions: both primary pituitary adenoma cultures, 1 μM, 7 days
Procedure: as §1, with “Ficoll (GE healthcare) density gradient separation was used once or twice as required in order to separate contaminating red blood cells from the tumor cells.” left out, “Dissociated cells were plated at a density of 10^5 cells per well. ACTH-secreting corticotroph pituitary adenoma tissue from patients with Cushing's disease (n=2) was available after transsphenoidal surgery. Single-cell suspensions of the pituitary adenoma tissues were prepared as previously described in detail.” left out
At the end of the AtT20 and primary pituitary adenoma culture experiments, medium was collected and supplemented with 1% of the protease inhibitor Trasylol to prevent degradation of ACTH. ACTH was measured using a commercially available, nonisotopic automatic chemiluminescence system (DPC Immulite).

[3] = test system: EAS associated adrenal hyperplasia cultures; assay: Cortisol production in primary EAS associated adrenal hyperplasia cultures; assay type: cell-based, human; conditions: Homo sapiens, 72 h, 3 days, read-out: IC50 inhibition of cortisol production
Procedure: as §1
Owing to a limited number of cells obtained from the specimens, not all experiments were carried out in every primary culture.
as §3, §4

[4] = test system: human primary adrenocortical cultures; assay: Cortisol production in human primary adrenocortical cultures, comparison across cultures; assay type: cell-based
Procedure: as §1, §2, §3, §4

[5] = six of the ten conditions with direct comparison in the same patient

IC50 ([3]; EAS associated hyperplasia no. 1, ACTH (85 μM) stimulated condition): 0.106 µM | IC50 ([3]; EAS associated hyperplasia no. 1, basal condition): 0.0262 µM | IC50 ([3]; EAS associated hyperplasia no. 2, basal condition): 0.0296 µM | mean difference in IC50 between both compounds ([4]; four remaining cultures): 5% | range of difference in IC50 between both compounds ([4]; four remaining cultures): 1-8% | mean increase IC50 compared to levoketoconazole [4, 5]: 52% | range of increase IC50 compared to levoketoconazole [4, 5]: 33-113%
SMILES: CC(=O)N1CCN(c2ccc(OCC3COC(Cn4ccnc4)(c4ccc(Cl)cc4Cl)O3)cc2)CC1 (racemic) [racemic ketoconazole, Ketoconazole]
11-DOC absolute change vs ACTH stimulation with vehicle ([1]; 0.05 μM): +76.63 nmol/l | 11-DOC percentage change vs ACTH stimulation with vehicle ([1]; 0.05 μM): (+25%**) | 17-OHP absolute change vs ACTH stimulation with vehicle ([1]; 0.05 μM): +8.133 nmol/l | 17-OHP percentage change vs ACTH stimulation with vehicle ([1]; 0.05 μM): (+52%) | Androstenedione absolute change vs ACTH stimulation with vehicle ([1]; 0.05 μM): -7.475 nmol/L | Androstenedione percentage change vs ACTH stimulation with vehicle ([1]; 0.05 μM): (−39%) | Corticosterone absolute change vs ACTH stimulation with vehicle ([1]; 0.05 μM): +105.7 nmol/l | Corticosterone percentage change vs ACTH stimulation with vehicle ([1]; 0.05 μM): (+31%) | Cortisol absolute change vs ACTH stimulation with vehicle ([1]; 0.05 μM): -62.25 nmol/L | Cortisol percentage change vs ACTH stimulation with vehicle ([1]; 0.05 μM): −11% | DHEA absolute change vs ACTH stimulation with vehicle ([1]; 0.05 μM): <LLQ | DHEAS absolute change vs ACTH stimulation with vehicle ([1]; 0.05 μM): <LLQ | Prog absolute change vs ACTH stimulation with vehicle ([1]; 0.05 μM): +3.425 nmol/l | Prog percentage change vs ACTH stimulation with vehicle ([1]; 0.05 μM): +96% | Testosterone absolute change vs ACTH stimulation with vehicle ([1]; 0.05 μM): -0.1750 nmol/L | Testosterone percentage change vs ACTH stimulation with vehicle ([1]; 0.05 μM): (−28%) | Cortisol percentage change vs ACTH stimulation with vehicle ([1]; 0.05 μM, listed as RK): (−11%*) | Prog percentage change vs ACTH stimulation with vehicle ([1]; 0.05 μM, listed as RK): (+96%**) | 11-DOC absolute change vs ACTH stimulation with vehicle ([1]; 5 μM): -402.7 nmol/L | 11-DOC percentage change vs ACTH stimulation with vehicle ([1]; 5 μM): (−99%) | 17-OHP absolute change vs ACTH stimulation with vehicle ([1]; 5 μM): -28.44 nmol/L | 17-OHP percentage change vs ACTH stimulation with vehicle ([1]; 5 μM): (−90%) | Androstenedione absolute change vs ACTH stimulation with vehicle ([1]; 5 μM): -14.79 nmol/L | Androstenedione percentage change vs ACTH stimulation with vehicle ([1]; 5 μM): (−98%) | Corticosterone absolute change vs ACTH stimulation with vehicle ([1]; 5 μM): -397.6 nmol/L | Corticosterone percentage change vs ACTH stimulation with vehicle ([1]; 5 μM): (−100%) | Cortisol absolute change vs ACTH stimulation with vehicle ([1]; 5 μM): -643.5 nmol/L | Cortisol percentage change vs ACTH stimulation with vehicle ([1]; 5 μM): (−100%) | DHEA absolute change vs ACTH stimulation with vehicle ([1]; 5 μM): <LLQ | DHEAS absolute change vs ACTH stimulation with vehicle ([1]; 5 μM): <LLQ | Prog absolute change vs ACTH stimulation with vehicle ([1]; 5 μM): +39.86 nmol/l | Prog percentage change vs ACTH stimulation with vehicle ([1]; 5 μM): (+1292%) | Testosterone absolute change vs ACTH stimulation with vehicle ([1]; 5 μM): -0.4350 nmol/L | Testosterone percentage change vs ACTH stimulation with vehicle ([1]; 5 μM): (−85%) | 11-DOC absolute change vs control ([1]; 0.05 μM): -62.23 nmol/L | 11-DOC percentage change vs control ([1]; 0.05 μM): (−27%) | 17-OHP absolute change vs control ([1]; 0.05 μM): +0.6833 nmol/l | 17-OHP percentage change vs control ([1]; 0.05 μM): (+7.5%) | Androstenedione absolute change vs control ([1]; 0.05 μM): -5.850 nmol/L | Androstenedione percentage change vs control ([1]; 0.05 μM): (−55%) | Corticosterone absolute change vs control ([1]; 0.05 μM): -68.60 nmol/L | Corticosterone percentage change vs control ([1]; 0.05 μM): (−32%) | Cortisol absolute change vs control ([1]; 0.05 μM): -86.78 nmol/L | Cortisol percentage change vs control ([1]; 0.05 μM): (−57%) | DHEA absolute change vs control ([1]; 0.05 μM): <LLQ | DHEAS absolute change vs control ([1]; 0.05 μM): <LLQ | Prog absolute change vs control ([1]; 0.05 μM): +4.475 nmol/l | Prog percentage change vs control ([1]; 0.05 μM): (+108%) | Testosterone absolute change vs control ([1]; 0.05 μM): -0.1500 nmol/L | Testosterone percentage change vs control ([1]; 0.05 μM): (−32%) | 11-DOC absolute change vs control ([1]; 5 μM): -270.7 nmol/L | 11-DOC percentage change vs control ([1]; 5 μM): (−98%) | 17-OHP absolute change vs control ([1]; 5 μM): -15.07 nmol/L | 17-OHP percentage change vs control ([1]; 5 μM): (−92%) | Androstenedione absolute change vs control ([1]; 5 μM): -8.219 nmol/L | Androstenedione percentage change vs control ([1]; 5 μM): (−94%) | Corticosterone absolute change vs control ([1]; 5 μM): -166.5 nmol/L | Corticosterone percentage change vs control ([1]; 5 μM): (−98%) | Cortisol absolute change vs control ([1]; 5 μM): -165.2 nmol/L | Cortisol percentage change vs control ([1]; 5 μM): (−99%) | DHEA absolute change vs control ([1]; 5 μM): <LLQ | DHEAS absolute change vs control ([1]; 5 μM): <LLQ | Prog absolute change vs control ([1]; 5 μM): +19.89 nmol/l | Prog percentage change vs control ([1]; 5 μM): (+537%***) | Testosterone absolute change vs control ([1]; 5 μM): -0.2688 nmol/L | Testosterone percentage change vs control ([1]; 5 μM): (−66%) | total change of steroids ([1]; EAS associated adrenal hyperplasia no. 1, basal condition): -218.5 nmol/L | total sum of change of the steroids: increase ([1]; EAS associated adrenal hyperplasia no. 1, under ACTH stimulation): 124.0 nmol/L | effects on ACTH secretion corrected for cell number [2]: No effects
